Where two headings read alike, the source gives them in different places.
Columns and labels:
[1] = test system: erythrocytic stages of P. falciparum NF54; assay: Plasmodium falciparum in vitro assay, [3H] hypoxanthine incorporation; assay type: cell-based; conditions: Plasmodium falciparum, Erythrocyte, 72 h, P. falciparum NF54 in human red blood cells, 48 h + 24 h incubation
Experimental: In Vitro Antimalarial Activity: Plasmodium falciparum In Vitro Assay In vitro activity against erythrocytic stages of P. falciparum in human red blood cells is determined using a [^3H] hypoxanthine incorporation assay. […] Thereafter, the parasite cultures incubated in screening medium containing washed human red blood cells at 2.5% hematocrit (0.3% parasitemia) are added to the serially diluted compounds and incubated in a humidifying atmosphere at 37° C., 4% CO2, 3% O2, and 93% N2. After 48 h, [^3H] hypoxanthine (0.5 μCi) is added to each well of a plate. The plates are incubated for a further 24 h under the same conditions then harvested with a Betaplate cell harvester (Wallac) and washed with distilled water. The dried filters are inserted into a plastic foil with 10 mL of scintillation fluid, and counted in a Betaplate liquid scintillation counter. IC50 values are calculated from sigmoidal inhibition curves using Microsoft Excel.

[2] = test system: P. berghei strain GFP-ANKA; assay: In vivo antimalarial efficacy study in infected NMRI mice; conditions: Plasmodium berghei; female NMRI mice infected with P. berghei GFP-ANKA; single oral dose of 100 mg/kg 24 h after infection; parasitemia 48 h after drug treatment (day 3); read-out: Activity (inhibition of parasitemia) expressed as a percent relative to the control group
Experimental: In Vivo Antimalarial Efficacy Studies
In vivo antimalarial activity is assessed for groups of three female NMRI mice (20-22 g) intravenously infected on day 0 with P. berghei strain GFP-ANKA (0.2 mL heparinized saline suspension containing 2×10^7 parasitized erythrocytes). In control mice, parasitemia typically rises to approximately 40% by day 3 after infection. Compounds are formulated in Tween 80/ethanol (7%/3%) usually at concentrations of 10 mg/mL. Compounds are administered in a volume of 10 mL/kg orally as single doses (1×100 mg/kg, 24 h after infection). 48 h after drug treatment (day 3 post-infection), 1 μl tail blood is taken, resuspended in 1 mL PBS buffer and parasitemia determined with a FACScan (Becton Dickinson) by counting 100′000 red blood cells. Activity is calculated as the difference between the mean value of the control group and treated groups expressed as a percent relative to the control group.

[3] = screening medium with Albumax (5 g/L), read-out: IC50 on NF54 (with Albumax)
[4] = screening medium with human serum (50% final concentration), read-out: IC50 on NF54 (with 50% Serum)

Compound: CC(=O)N1CCN(c2ccc(CN(C(=O)C=Cc3ccc(OC(F)F)cc3)[C@@H](Cc3ccccc3)C(=O)N3CCN(Cc4ccc(Cl)cc4)CC3)cc2)CC1 [Example 41, (S)-N-[4-(4-Acetyl-piperazin-1-yl)-benzyl]-N-{1-benzyl-2-[4-(4-chloro-benzyl)-piperazin-1-yl]-2-oxo-ethyl}-3-(4-difluoromethoxy-phenyl)-acrylamide]
- IC50 [1, 3]: 2.9 nM
- IC50 [1, 4]: 12.5 nM
- inhibition in vivo at 100 mg/kg [2]: 71%

Compound: CC(=O)N1CCN(c2ccc(CN(C(=O)C=Cc3ccc(C(C)C)cc3)[C@@H](Cc3ccccc3)C(=O)N3CCN(Cc4ccccc4)CC3)cc2)CC1 [Example 10, (S)-N-[4-(4-Acetyl-piperazin-1-yl)-benzyl]-N-[1-benzyl-2-(4-benzyl-piperazin-1-yl)-2-oxo-ethyl]-3-(4-isopropyl-phenyl)-acrylamide]
- IC50 [1, 3]: 3 nM
- IC50 [1, 4]: 8.6 nM
- inhibition in vivo at 100 mg/kg [2]: 96%

Compound: CC(=O)N1CCN(c2ccc(CN(C(=O)C=Cc3ccc(C(C)(C)C)cc3)[C@@H](Cc3ccccc3)C(=O)N3CCN(Cc4ccc(S(C)(=O)=O)cc4)CC3)cc2)CC1 [Example 45, (S)-N-[4-(4-Acetyl-piperazin-1-yl)-benzyl]-N-{1-benzyl-2-[4-(4-(methylsulfonyl)-benzyl)-piperazin-1-yl]-2-oxo-ethyl}-3-(4-tert-butyl-phenyl)-acrylamide]
- IC50 [1, 3]: 0.2 nM
- IC50 [1, 4]: 1.8 nM
- inhibition in vivo at 100 mg/kg [2]: 99.4%

Compound: CC(=O)N1CCN(c2ccc(CN(C(=O)C=Cc3ccc(S(C)(=O)=O)cc3)[C@@H](Cc3ccccc3)C(=O)N3CCN(Cc4ccc(N(C)C)cc4)CC3)cc2)CC1 [Example 16, (S)-N-[4-(4-Acetyl-piperazin-1-yl)-benzyl]-N-{1-benzyl-2-[4-(4-dimethylamino-benzyl)-piperazin-1-yl]-2-oxo-ethyl}-3-(4-methanesulfonyl-phenyl)-acrylamide]
- IC50 [1, 3]: 5.5 nM
- IC50 [1, 4]: 13.3 nM
- inhibition in vivo at 100 mg/kg [2]: 85.9%

Compound: COc1ccc(C=CC(=O)N(Cc2ccc(N3CCN(C(C)=O)CC3)cc2)[C@@H](Cc2ccccc2)C(=O)N2CCN(Cc3ccc(N(C)CCO)cc3)CC2)cn1 [Example 52, (S)-N-[4-(4-Acetyl-piperazin-1-yl)-benzyl]-N-[1-benzyl-2-(4-{4-[(2-hydroxy-ethyl)-methyl-amino]-benzyl}-piperazin-1-yl)-2-oxo-ethyl]-3-(6-methoxy-pyridin-3-yl)-acrylamide]
- IC50 [1, 3]: 10 nM
- IC50 [1, 4]: 33 nM
- inhibition in vivo at 100 mg/kg [2]: < 40%

Compound: CCCOc1ccc(C=CC(=O)N(Cc2ccc(N3CCN(C(C)=O)CC3)cc2)[C@@H](Cc2ccccc2)C(=O)N2CCN(Cc3ccc(N(C)C)cc3)CC2)cc1 [Example 18, (S)-N-[4-(4-Acetyl-piperazin-1-yl)-benzyl]-N-{1-benzyl-2-[4-(4-dimethylamino-benzyl)-piperazin-1-yl]-2-oxo-ethyl}-3-(4-propoxy-phenyl)-acrylamide]
- IC50 [1, 3]: 2.5 nM
- IC50 [1, 4]: 11.8 nM
- inhibition in vivo at 100 mg/kg [2]: 99.1%

Compound: CC(=O)N1CCN(c2ccc(CN(C(=O)C=Cc3ccc(C(C)(C)C)cc3)[C@@H](Cc3ccccc3)C(=O)N3CCN(Cc4ccc(N(C)CCO)cc4)CC3)cc2)CC1 [Example 62, (S)-N-[4-(4-Acetyl-piperazin-1-yl)-benzyl]-N-[1-benzyl-2-(4-{4-[(2-hydroxy-ethyl)-methyl-amino]-benzyl}-piperazin-1-yl)-2-oxo-ethyl]-3-(4-tert-butyl-phenyl)-acrylamide]
- IC50 [1, 3]: 0.7 nM
- IC50 [1, 4]: 3.2 nM
- inhibition in vivo at 100 mg/kg [2]: 99.4%

Compound: CCOc1ccc(C=CC(=O)N(Cc2ccc(N3CCN(C(C)=O)CC3)cc2)[C@@H](Cc2ccccc2)C(=O)N2CCN(Cc3ccccc3)CC2)cc1 [Example 4, (S)-N-[4-(4-Acetyl-piperazin-1-yl)-benzyl]-N-[1-benzyl-2-(4-benzyl-piperazin-1-yl)-2-oxo-ethyl]-3-(4-ethoxy-phenyl)-acrylamide]
- IC50 [1, 3]: 1.9 nM
- IC50 [1, 4]: 10 nM
- inhibition in vivo at 100 mg/kg [2]: 97.4%

Compound: CC(=O)N1CCN(c2ccc(CN(C(=O)C=Cc3ccc(OC(C)C)cc3)[C@@H](Cc3ccccc3)C(=O)N3CCN(Cc4ccc(N(C)CCO)cc4)CC3)cc2)CC1 [Example 58, (S)-N-[4-(4-Acetyl-piperazin-1-yl)-benzyl]-N-[1-benzyl-2-(4-{4-[(2-hydroxy-ethyl)-methyl-amino]-benzyl}-piperazin-1-yl)-2-oxo-ethyl]-3-(4-isopropoxy-phenyl)-acrylamide]
- IC50 [1, 3]: 1.4 nM
- IC50 [1, 4]: 3.9 nM
- inhibition in vivo at 100 mg/kg [2]: 98.2%

Compound: CCOc1ccc(C=CC(=O)N(Cc2ccc(N3CCN(C(C)=O)CC3)cc2)[C@@H](Cc2ccccc2)C(=O)N2CCN(Cc3ccc(Cl)cc3)CC2)cc1 [Example 35, (S)-N-[4-(4-Acetyl-piperazin-1-yl)-benzyl]-N-{1-benzyl-2-[4-(4-chloro-benzyl)-piperazin-1-yl]-2-oxo-ethyl}-3-(4-ethoxy-phenyl)-acrylamide]
- IC50 [1, 3]: 2.9 nM
- IC50 [1, 4]: 9 nM
- inhibition in vivo at 100 mg/kg [2]: 98.7%

Compound: CC(=O)N1CCN(c2ccc(CN(C(=O)C=Cc3ccc(C(F)(F)F)cc3)[C@@H](Cc3ccccc3)C(=O)N3CCN(Cc4ccccc4)CC3)cc2)CC1 [Example 1, (S)-N-[4-(4-Acetyl-piperazin-1-yl)-benzyl]-N-[1-benzyl-2-(4-benzyl-piperazin-1-yl)-2-oxo-ethyl]-3-(4-trifluoromethyl-phenyl)-acrylamide, reference compound]
- IC50 [1, 3]: 5.1 nM
- IC50 [1, 4]: 27.6 nM
- inhibition in vivo at 100 mg/kg [2]: < 40%

Compound: CC(=O)Nc1ccc(C=CC(=O)N(Cc2ccc(N3CCN(C(C)=O)CC3)cc2)[C@@H](Cc2ccccc2)C(=O)N2CCN(Cc3ccc(C#N)cc3)CC2)cc1 [Example 27, (S)-3-(4-Acetylamino-phenyl)-N-[4-(4-acetyl-piperazin-1-yl)-benzyl]-N-{1-benzyl-2-[4-(4-cyano-benzyl)piperazin-1-yl]-2-oxo-ethyl}-acrylamide]
- IC50 [1, 3]: 1.8 nM
- IC50 [1, 4]: 12.9 nM
- inhibition in vivo at 100 mg/kg [2]: < 40%

Compound: CC(=O)N1CCN(c2ccc(CN(C(=O)C=Cc3ccc(C(C)(C)C)cc3)[C@@H](Cc3ccccc3)C(=O)N3CCN(Cc4ccccc4)CC3)cc2)CC1 [Example 3, (S)-N-[4-(4-Acetyl-piperazin-1-yl)-benzyl]-N-[1-benzyl-2-(4-benzyl-piperazin-1-yl)-2-oxo-ethyl]-3-(4-tert-butyl-phenyl)-acrylamide]
- IC50 [1, 3]: 1.9 nM
- IC50 [1, 4]: 8.5 nM
- inhibition in vivo at 100 mg/kg [2]: 98.7%

Compound: CCCOc1ccc(C=CC(=O)N(Cc2ccc(N3CCN(C(C)=O)CC3)cc2)[C@@H](Cc2ccccc2)C(=O)N2CCN(Cc3ccc(N(C)CCO)cc3)CC2)cc1 [Example 57, (S)-N-[4-(4-Acetyl-piperazin-1-yl)-benzyl]-N-[1-benzyl-2-(4-{4-[(2-hydroxy-ethyl)-methyl-amino]-benzyl}-piperazin-1-yl)-2-oxo-ethyl]-3-(4-propoxy-phenyl)-acrylamide]
- IC50 [1, 3]: 1.7 nM
- IC50 [1, 4]: 5.1 nM
- inhibition in vivo at 100 mg/kg [2]: 98.2%

Compound: CC(=O)c1ccc(C=CC(=O)N(Cc2ccc(N3CCN(C(C)=O)CC3)cc2)[C@@H](Cc2ccccc2)C(=O)N2CCN(Cc3ccc(N(C)C)cc3)CC2)cc1 [Example 70, (S)-3-(4-Acetyl-phenyl)-N-[4-(4-acetyl-piperazin-1-yl)benzyl]-N-{1-(4-(4-(dimethylamino)benzyl)piperazin-1-yl)-1-oxo-3-phenylpropan-2-yl}acrylamide]
- IC50 [1, 3]: < 3.1 nM
- IC50 [1, 4]: 16 nM

— patent publication US8889688B2, “Piperazines as antimalarial agents” (Actelion Pharmaceuticals Ltd., priority 2011, dated 2014)
